ChEMBL document CHEMBL5661955, “ASAP - In vitro cytotoxicity” (2024)
Several values for one entry are separate records, joined by “and”; a condition that tells them apart may be missing. Identical values can stand only once.

How the values were obtained:
[1] = (§1) Functional CPE-based assay to measure dose dependent changes in cell viability from drug treatment in Vero E6 miRFP670 cells. Cells are treated with antiviral candidates that have been serially diluted. Cytotoxicity is reported via analysis of MTS assays in uninfected cells. The assay has been performed by KU Leuven.; type: toxicity, Vero C1008; settings: chlorocebus sabaeus
[2] = as §1, with “miRFP670 cells (cotreated with P-gp inhibitor, CP100356).” for “miRFP670 cells.”; type: toxicity, Vero C1008; settings: chlorocebus sabaeus
[3] = Functional assay to measure dose dependent changes in cell viability from drug treatment in Vero E6 miRFP670 cells (cotreated with P-gp inhibitor, CP100356) that are infected with Dengue virus type 2 New Guinea C. […] Cytotoxicity is reported via via analysis of DAPI count using high-content imager. The assay has been performed by KU Leuven.; type: toxicity, cell-based, Vero C1008; settings: chlorocebus sabaeus, p-gp concentration 500 nM
[4] = as §1, with “Huh-7” for “Vero E6 miRFP670”, “of MTT/” for “of”, “National Institute of Allergy and Infectious Diseases.” for “KU Leuven.”; type: toxicity; settings: human
[5] = Functional metabolic assay to measure dose dependent changes in cell viability from drug treatment in Vero E6/TMPRSS2 cells (cotreated with P-gp inhibitor, Elacridar). […] Cytotoxicity is reported via measuring absorbance and analysis of MTT/MTS assays in uninfected cells. The assay has been performed by Icahn School of Medicine at Mount Sinai.; type: toxicity, cell-based, VeroE6/TMPRSS2; settings: chlorocebus sabaeus, p-gp concentration 2 uM
[6] = Functional metabolic assay to measure dose dependent changes in cell viability from drug treatment in Vero E6/TMPRSS2 cells. Cells are treated with antiviral candidates that have been serially diluted. Cytotoxicity is reported via measuring absorbance and analysis of MTT/MTS assays in uninfected cells. The assay has been performed by Icahn School of Medicine at Mount Sinai.; type: toxicity, cell-based, VeroE6/TMPRSS2; settings: chlorocebus sabaeus; for CC50: Vero E6/TMPRSS2 cells; for CC10: veroe6/tmprss2
[7] = Vero E6 miRFP670 cells, with CP100356 (P-gp inhibitor, concentration not stated), p-gp concentration 500 nM
[8] = vero c1008, p-gp concentration 500 nM
[9] = with CP100356 (P-gp inhibitor, concentration not stated)
[10] = Vero E6/TMPRSS2 cells, with Elacridar (P-gp inhibitor, concentration not stated)

SMILES | CC50 ([1]; Vero E6 miRFP670 cells) | CC50 [3, 9] | CC50 [5, 10] | CC10 ([5]; veroe6/tmprss2) | other results
C#C[C@@]1(O)[C@H](O)[C@@H](CO)O[C@H]1n1ccc2c(N)ncnc21 | > 50 µM | > 50 µM |  |  | CC50 [2, 7]: > 50 µM; CC50 [2, 8]: 38 µM; CC50 ([3]; vero c1008): 40.4 µM and 28.2 µM
CCCCCC(=O)N[C@H](C(=O)NCc1cccc(CN)c1)c1ccc(OCc2ccccc2)cc1 |  | 2.32 µM |  |  | CC50 [4]: 18 µM
CCCCCC(=O)N[C@H](C(=O)Nc1ccc2[nH]ncc2c1)c1ccc(OCc2ccccc2)cc1 |  | > 10 µM |  |  | CC50 [4]: 32 µM
CCCCCC(=O)N[C@H](C(=O)Nc1ccc(C(N)=O)cc1)c1ccc(OCc2ccccc2)cc1 |  | > 10 µM |  |  | CC50 [4]: 32 µM
CC(C)Cc1nc2c(C(=O)Nc3ccc4c(c3)CNC4)cc(Br)cc2[nH]1 | 0.623 µM | 0.864 µM | 20.9 µM | 0.569 µM | 
O=C(Nc1ccc2c(c1)CNC2)c1cc(Cl)cc(-n2cccc2)c1 | > 50 µM | > 50 µM | 46.4 µM | 17.502 µM and 9.003 µM | CC50 ([5]; veroe6/tmprss2): 34.8 µM
Clc1ccc2[nH]cc(Cc3ccc(-c4nn[nH]n4)cc3)c2c1 | > 50 µM | 19.3 µM | > 50 µM | > 50 µM | 
CC(C)NC(=O)[C@H](Nc1ccc2c(c1)CNC2)c1cc(Cl)cc2[nH]ncc12 | > 50 µM |  | > 50 µM | > 50 µM | CC50 [2, 7]: > 50 µM; CC50 [2, 8]: 47.7 µM; CC50 ([3]; vero c1008): > 50 µM and 7.69 µM and 29 µM
C=C1C[C@H](c2cc(Cl)cc(NC(=O)OCc3ccccc3)c2)[C@@H](c2cccc(-c3nn[nH]n3)c2)C1 | 5.72 µM | 7.56 µM |  |  | 
O=C(Nc1ccc2c(c1)CNC2)c1cc(Cl)cc(C2CC2)c1 | 10.5 µM | 11.2 µM | > 50 µM | 0.136 µM | 
O=C1Cc2c(cccc2C(=O)Nc2ccc3c(c2)CNC3)N1 | > 50 µM | > 50 µM |  |  | CC50 [2, 7]: > 50 µM
O=C(Nc1ccc2c(c1)CNC2)c1cc(Br)cc2[nH]c(-c3ccccc3)nc12 | 10.7 µM | 3.3 µM | 14.3 µM | 0.098 µM | 
O=C(Nc1ccc2c(c1)CNCCC2)c1cc(Cl)cc2[nH]ncc12 | 1.42 µM | 2.18 µM | > 50 µM | < 0.023 µM | 
O=C(Nc1cc(Cl)cc(C(=O)NCc2ccc(-c3nnn[nH]3)cc2)c1)OCc1ccccc1 | > 50 µM | 3.21 µM | > 50 µM | > 50 µM | 
CC(C)(C)NC(=O)[C@H](Nc1cccc(-c2nn[nH]n2)c1)c1cc(Cl)cc(NC(=O)OCc2ccccc2)c1 | > 50 µM | 2.78 µM | > 50 µM | > 50 µM | 
O=C(Nc1cc(Cl)cc([C@H]2CN(Cc3ccccc3)C[C@@H]2c2cccc(-c3nn[nH]n3)c2)c1)OCc1ccccc1 | 12.5 µM | 12.3 µM | > 50 µM | 34.224 µM | 
O=C(Nc1ccc2c(c1)CNC2)c1cccc2[nH]ncc12 | 11.5 µM | 15.4 µM | > 50 µM | > 50 µM | 
O=C(Nc1cc(Cl)cc(C(=O)Nc2ccc3c(c2)CNC3)c1)OCc1ccccc1 | 9.29 µM | 12.1 µM |  |  | CC50 ([5]; veroe6/tmprss2): > 10 µM and 25.1 µM; CC50 [6]: 16.6 µM; CC10 [6]: 19.011 µM
O=C(Nc1ccc2c(c1)CNC2)c1cc(Br)cc2[nH]c(Cc3ccccc3)nc12 | 11.6 µM | 9.98 µM | 16.5 µM | 0.199 µM | 
CCc1nc2c(C(=O)Nc3ccc4c(c3)CNC4)cc(Br)cc2[nH]1 | > 50 µM | > 50 µM | 33.5 µM | 0.32 µM | 
CC(C)c1nc2c(C(=O)Nc3ccc4c(c3)CNC4)cc(Br)cc2[nH]1 | 2.65 µM | 3.63 µM | 19.2 µM | 0.476 µM | 
NCCCc1cccc(NC(=O)c2cc(Cl)cc(NC(=O)OCc3ccccc3)c2)n1 | 4.43 µM |  | 14.9 µM | 0.527 µM | CC50 [6]: 6.18 µM; CC10 [6]: 6.788 µM
NCc1cccc(NC(=O)c2cc(Cl)cc(-n3cccc3)c2)c1 | 25.7 µM | > 50 µM | > 50 µM | > 50 µM | 
O=C(Nc1cc(Cl)cc(C(=O)Nc2cccc(C3CCNCC3)c2)c1)OCc1ccccc1 | 5.29 µM | 11.8 µM | > 10 µM |  | CC50 ([5]; veroe6/tmprss2): 13.5 µM
N#C[C@H](Nc1ccc2c(c1)CNC2)c1cc(Cl)cc2[nH]ncc12 | > 50 µM |  | > 50 µM | > 50 µM | 

SMILES | CC50 ([1]; Vero E6 miRFP670 cells) | CC50 [3, 9] | CC50 [5, 10] | CC10 ([5]; veroe6/tmprss2) | other results
NCc1cccc(NC(=O)[C@@H](NC(=O)OCc2ccccc2)c2ccc(OCc3ccccc3)cc2)c1 |  | 5.95 µM |  |  | CC50 [4]: 18 µM
O=C(O)COc1cccc(NC(=O)c2cc(Cl)cc(NC(=O)OCc3ccccc3)c2)c1 | > 50 µM |  | > 50 µM | > 50 µM | 
CCOc1cccc(-c2ccc(S(=O)(=O)Nc3ccc(Cl)cc3C(=O)O)cc2C)c1 | 36.1 µM | 21.9 µM | > 50 µM | 0.027 µM | 
NCCc1ccc([C@H]2C[C@@H]2c2cc(Cl)cc(NC(=O)OCc3ccccc3)c2)cc1 | 2.43 µM | 5.29 µM |  |  | CC50 [2, 7]: 5.78 µM; CC50 ([3]; vero c1008): 4.57 µM
O=C(Nc1cc(Cl)cc(C(=O)Nc2ccc(C3CCNCC3)cc2)c1)OCc1ccccc1 | 2.82 µM | 3.1 µM |  |  | CC50 [2, 7]: 1.43 µM
COc1cc(Cc2c(-c3ccc(F)cc3)noc2C)nc(N2CCNCC2)n1 |  | > 10 µM |  |  | CC50 [4]: 18 µM
Cc1cc(CN)cc(NC(=O)c2cc(Cl)cc(NC(=O)OCc3ccccc3)c2)c1 |  |  | > 10 µM |  | CC50 ([5]; veroe6/tmprss2): 16.6 µM; CC50 [6]: 7.97 µM; CC10 [6]: 8.014 µM
CC(C)OC(=O)Nc1cc(Cl)cc(C(=O)Nc2cccc(CN)c2)c1 | 20.5 µM | 4.99 µM | > 50 µM | < 0.023 µM | 
O=C(Nc1cc(Cl)cc(-c2ccc3cc(C(=O)O)[nH]c3c2)c1)OCc1ccccc1 | < 0.391 µM | 24.8 µM |  |  | CC50 [2, 7]: 38.1 µM
COC(=O)c1cc(NC(=O)c2cc(Cl)cc(NC(=O)OCc3ccccc3)c2)cc(-c2nnn[nH]2)c1 | 35.2 µM |  | > 50 µM | > 50 µM | 
O=C(Nc1cc(Cl)cc(C(=O)Nc2cccc(-c3nnn[nH]3)c2)c1)OCc1ccccc1 |  |  | > 50 µM | 0.117 µM | CC50 [6]: > 50 µM; CC10 [6]: > 50 µM
C[C@@]1(c2cccc(CN)c2)C[C@H]1c1cc(Cl)cc(NC(=O)OCc2ccccc2)c1 | 2.61 µM | 6.46 µM |  |  | 
CCc1cc(C(=O)Nc2cccc(CN)c2)sc1-c1ccc(Cl)cc1 | 4.86 µM |  | 9.12 µM | 0.452 µM | CC50 [6]: 13.9 µM; CC10 [6]: 15.317 µM
CC[C@@H](Cc1nnn[nH]1)c1ccc(NC(=O)c2cc(Cl)cc(NC(=O)OCc3ccccc3)c2)cc1 | > 50 µM | > 50 µM | > 50 µM | > 50 µM | CC50 [6]: > 50 µM; CC10 [6]: > 50 µM
Cc1cc(-c2ccc([C@@H](NC(=O)OCc3ccccc3)C(=O)Nc3cccc(CN)c3)cc2)cs1 |  |  | 21.2 µM | 0.089 µM | CC50 [6]: 6.25 µM; CC10 [6]: 7.281 µM
NCc1cccc(C(=O)Nc2cc(Cl)cc(NC(=O)OCc3ccccc3)c2)c1 |  |  | > 10 µM |  | CC50 ([5]; veroe6/tmprss2): 19.3 µM; CC50 [6]: 6.67 µM; CC10 [6]: 8.366 µM
NCCc1cccc(NC(=O)[C@H]2[C@H]3CCCCC[C@H]3[C@H]2NC(=O)OCc2ccccc2)c1 | 7.48 µM | 7.53 µM | 4.88 µM | 0.282 µM | CC50 [6]: 1.78 µM; CC10 [6]: 2.002 µM
NCc1cccc(CCc2cc(Cl)cc(NC(=O)OCc3ccccc3)c2)c1 | 5.46 µM | 11.9 µM | 29.7 µM | 2.058 µM | 
O=C(O)c1cc2cc(-c3cc(Cl)cc(C4CC4)c3)ccc2[nH]1 | 40.7 µM | 26.5 µM |  |  | CC50 [2, 7]: 35.5 µM
Cc1ccc(NC(=O)c2cc(Cl)cc(NC(=O)OCc3ccccc3)c2)cc1CN | 5.18 µM | 4.33 µM | 15 µM |  | CC50 ([5]; veroe6/tmprss2): 15.2 µM; CC50 [6]: 6.64 µM; CC10 [6]: 8.104 µM; CC50 [2, 7]: 5.8 µM
Cc1[nH]c2ccccc2c1CN1CCC(c2c[nH]c3ncccc23)CC1 | 25.2 µM | 31 µM | > 10 µM |  | CC50 [6]: > 50 µM; CC10 [6]: > 50 µM
CCc1cc(Br)cc2c(Cc3ccc(-c4nnn[nH]4)cc3)c[nH]c12 | 19.4 µM | 23.1 µM |  |  | CC50 ([1]; vero c1008): 17.9 µM; CC50 [2, 7]: 21.7 µM; CC50 ([3]; vero c1008): 18.6 µM
O=C(O)c1cc(Cl)ccc1NS(=O)(=O)c1ccc(Oc2ccccc2Cl)cc1 |  |  |  |  | CC50 [6]: > 50 µM; CC10 [6]: > 50 µM
O=C(Nc1cc(Cl)cc(C(=O)Nc2cccc(-n3nn[nH]c3=O)c2)c1)OCc1ccccc1 | > 50 µM | > 50 µM |  |  | CC50 [6]: > 50 µM; CC10 [6]: > 50 µM
C[C@@]1(O)[C@H](O)[C@@H](CO)O[C@H]1n1ccc2c(N)ncnc21 [BETA-2'-C-METHYL-7-DEAZA-ADENOSINE] | > 50 µM |  | > 10 µM |  | CC50 [6]: > 10 µM; CC10 [6]: > 10 µM; CC50 ([2]; vero c1008, p-gp concentration 100 nM): > 50 µM; CC50 [2, 8]: > 200 µM; CC50 ([3]; vero c1008): 24.6 µM and > 200 µM
